Experimental data from ChEMBL document CHEMBL1123900, “Thienothiopyran-2-sulfonamides: a novel class of water-soluble carbonic anhydrase inhibitors” (J Med Chem, 1987).
Converted amounts (≈) assume the structure as drawn.

Tests used:
[1] = Total solubility measured on pH 7.4 buffer at 25 degree C; type: ADME; settings: read-out: S
[2] = pKa value in 30% EtOH-H20; type: physicochemical; settings: 30% EtOH-H2O
Carbonic anhydrase 2 [3] = biological target: T1, Carbonic anhydrase 2 (Homo sapiens, UniProt P00918)
Description: In vitro inhibition against purified human erythrocyte carbonic anhydrase II was determined (acetozolamide used as control.)

Carbonic anhydrase 2 [4] = biological target: T1, Carbonic anhydrase 2; remark: listed apart in the source
Description: In vitro binding to human erythrocyte Carbonic anhydrase II was determined by fluorescence competition assay employing the fluorescent CA inhibitor dansylamide

[5] = Solubility (pH 7.4 buffer ar 25 degree C); type: physicochemical; settings: read-out: S
[6] = Partition coefficient determined in 1-octanol buffer pH 7.4; type: physicochemical; settings: octanol/water
Carbonic anhydrase 2 [7] = biological target: T1, Carbonic anhydrase 2; remark: listed apart in the source
Description: In vitro binding to human erythrocyte carbonic anhydrase was determined by fluorescence competition assay employing the fluorescent CA inhibitor dansylamide

Compound	pKa [2]	solubility [5]	Partition coefficient [6]	solubility [1]	IC50 (Carbonic anhydrase 2 [3])	Ki (Carbonic anhydrase 2 [4])	Ki (Carbonic anhydrase 2 [7])
NS(=O)(=O)c1cc2c(s1)C(=O)CCS2	8.45	–	–	80 µg/mL (≈ 0.321 mM)	3.5 nM	1.15 nM	–
NS(=O)(=O)c1cc2c(s1)SCCC2O (configuration not stated)	9.4	640 µg/mL (≈ 2.55 mM)	–	–	30 nM	28 nM	–
NS(=O)(=O)c1cc2c(s1)C(O)CCS2 (configuration not stated)	9	1400 µg/mL (≈ 5.57 mM)	3	–	23 nM	14.2 nM	–
NS(=O)(=O)c1cc2c(s1)C(O)CC[S+]2[O-] (configuration not stated)	8.82	7200 µg/mL (≈ 26.9 mM)	–	–	250 nM	–	309 nM
NS(=O)(=O)c1cc2c(s1)[S+]([O-])CCC2O (configuration not stated)	8.68	12000 µg/mL (≈ 44.9 mM)	–	–	100 nM	–	104 nM
NS(=O)(=O)c1cc2c(s1)CC(O)CS2(=O)=O (configuration not stated)	8.52	7300 µg/mL (≈ 25.8 mM)	0.2	–	40 nM	–	18.2 nM
NS(=O)(=O)c1cc2c(s1)SCCC2=O	8.6	70 µg/mL (≈ 0.281 mM)	–	–	8.5 nM	3.63 nM	–
NS(=O)(=O)c1cc2c(s1)S(=O)(=O)CCC2	8.35	560 µg/mL (≈ 2.09 mM)	–	–	4.5 nM	–	3.3 nM

Continued, in another order:

pKa [2]	solubility [5]	Partition coefficient [6]	Compound	solubility [1]	IC50 (Carbonic anhydrase 2 [3])	Ki (Carbonic anhydrase 2 [4])	Ki (Carbonic anhydrase 2 [7])
8.6	8200 µg/mL (≈ 28.9 mM)	–	NS(=O)(=O)c1cc2c(s1)S(=O)(=O)CC(O)C2 (configuration not stated)	–	10 nM	–	7.11 nM
8.35	12500 µg/mL (≈ 44.1 mM)	0.45	NS(=O)(=O)c1cc2c(s1)S(=O)(=O)CCC2O (configuration not stated)	–	–	–	–
8.3	6400 µg/mL (≈ 22.6 mM)	0.42	NS(=O)(=O)c1cc2c(s1)S(=O)(=O)CC[C@@H]2O	–	–	–	–
7.92	270 µg/mL (≈ 0.96 mM)	0.92	NS(=O)(=O)c1cc2c(s1)S(=O)(=O)CCC2=O	–	5 nM	–	–
8.35	6300 µg/mL (≈ 22.2 mM)	0.42	NS(=O)(=O)c1cc2c(s1)S(=O)(=O)CC[C@H]2O	–	–	–	–
7.32	60 µg/mL (≈ 0.213 mM)	0.63	NS(=O)(=O)c1cc2c(s1)C(=O)CCS2(=O)=O	–	22 nM	14.1 nM	–
–	24 µg/mL (≈ 0.0929 mM)	–	CCOc1ccc2nc(S(N)(=O)=O)sc2c1 [ETHOXZOLAMIDE]	–	–	–	–
–	58 µg/mL (≈ 0.184 mM)	–	CC(C)(C)C(=O)Oc1ccc2nc(S(N)(=O)=O)sc2c1	–	–	–	–
8.34	15000 µg/mL (≈ 52.9 mM)	–	NS(=O)(=O)c1cc2c(s1)C(O)CCS2(=O)=O (configuration not stated)	–	40 nM	30.5 nM	–
